Measurements taken from publication PMC11822212, “High-throughput screening identifies Aurora kinase B as a critical therapeutic target for Merkel cell carcinoma” (Nature Communications, 2025).
Read-outs that look alike come from different tables or passages of the source.

How the values were obtained:
MKL-2 cells (VP-MCC) = test: qHTS cell viability (CellTiter-Glo, 72 h; primary and follow-up small molecule screen); assay type: cell-based, human
MKL-1 cells (VP-MCC) = test: as above; assay type: cell-based, human
[1] = system: MKL-1 (VP-MCC) xenograft tumors; parameters: method as in PMID 22572880; conditions: prior report; cited from earlier work
[2] = qHTS cell viability (CellTiter-Glo, 72 h; primary screen), control cell line; assay type: cell-based, human; conditions: human, HEK293T, read-out: Percent viability
[3] = system: VP-MCC cell lines (WAGA, MKL-1, MKL-2); test: qHTS cell viability, VP-MCC cell lines as a group (mean AUC, VP.MCC.avg); assay type: cell-based, human; conditions: small molecule screen
MCC26 cells (VN-MCC) = test: qHTS cell viability (CellTiter-Glo, 72 h; primary and follow-up small molecule screen); assay type: cell-based, human
UISO cells (VN-MCC) = test: as above; assay type: cell-based, human; conditions: UISO
WAGA cells (VP-MCC) = test: as above; assay type: cell-based, human; conditions: WAGA
[4] = qHTS cell viability (CellTiter-Glo, 72 h; primary screen), control cell line; assay type: cell-based, human; conditions: human, HACAT, read-out: Percent viability
[5] = as above; assay type: cell-based, mouse; conditions: mouse, read-out: Percent viability
MCC13 cells (VN-MCC) = test: qHTS cell viability (CellTiter-Glo, 72 h; primary and follow-up small molecule screen); assay type: cell-based, human

For `COCCn1c2c([n+](Cc3cnccn3)c1C)C(=O)c1ccccc1C2=O` [sepantronium bromide, reference compound], the Percent viability (MKL-2 cells (VP-MCC); MKL2, Log (M) -4.33646) was 5.0%, the Percent viability (MKL-2 cells (VP-MCC); MKL2, Log (M) -4.81358) was 6.0% and the Percent viability (MKL-2 cells (VP-MCC); MKL2, Log (M) -5.2907) was 6.6%. The Percent viability (MKL-2 cells (VP-MCC); MKL2, Log (M) -5.76782) was 7.9%, the Percent viability (MKL-2 cells (VP-MCC); MKL2, Log (M) -6.24494) was 7.7% and the Percent viability (MKL-2 cells (VP-MCC); MKL2, Log (M) -6.72207) was 7.4%. The Percent viability (MKL-2 cells (VP-MCC); MKL2, Log (M) -7.19919) was 9.2%, the Percent viability (MKL-2 cells (VP-MCC); MKL2, Log (M) -7.67631) was 27.9% and the Percent viability (MKL-2 cells (VP-MCC); MKL2, Log (M) -8.15343) was 100.0%. It also gave a Percent viability (MKL-2 cells (VP-MCC); MKL2, Log (M) -8.63055) of 100.0%, a Percent viability (MKL-2 cells (VP-MCC); MKL2, Log (M) -9.10767) of 102.5% and a Percent viability (MKL-1 cells (VP-MCC); MKL1, Log (M) -4.33646) of 4.1%. It also gave a Percent viability (MKL-1 cells (VP-MCC); MKL1, Log (M) -4.81358) of 5.1%, a Percent viability (MKL-1 cells (VP-MCC); MKL1, Log (M) -5.2907) of 6.0% and a Percent viability (MKL-1 cells (VP-MCC); MKL1, Log (M) -5.76782) of 6.5%. It also gave a Percent viability (MKL-1 cells (VP-MCC); MKL1, Log (M) -6.24494) of 8.2%, a Percent viability (MKL-1 cells (VP-MCC); MKL1, Log (M) -6.72207) of 7.5% and a Percent viability (MKL-1 cells (VP-MCC); MKL1, Log (M) -7.19919) of 7.7%. The Percent viability (MKL-1 cells (VP-MCC); MKL1, Log (M) -7.67631) was 8.0%, the Percent viability (MKL-1 cells (VP-MCC); MKL1, Log (M) -8.15343) was 17.1% and the Percent viability (MKL-1 cells (VP-MCC); MKL1, Log (M) -8.63055) was 55.6%. For the same compound, the Percent viability (MKL-1 cells (VP-MCC); MKL1, Log (M) -9.10767) was 97.8%, the “growth of MKL-1 (VP-MCC) xenograft tumors (in words)” value [1] was “slowed the growth of MKL-1 (VP-MCC) xenograft tumors” and the viability at 72 h, 15.4 µM ([2]; HEK293T cells (control cell line), Log (M) -4.81358) was 1%. It also gave a viability at 72 h, 5.12 µM ([2]; HEK293T cells (control cell line), Log (M) -5.2907) of -4.1%, a viability at 72 h, 1.71 µM ([2]; HEK293T cells (control cell line), Log (M) -5.76782) of -3.3% and a viability at 72 h, 63.2 nM ([2]; HEK293T cells (control cell line), Log (M) -7.19919) of -1.7%. The viability at 72 h, 46.1 µM ([2]; HEK293T cells, Log (M) -4.33646) was -1.2%, the viability at 72 h, 21.1 nM ([2]; HEK293T cells, Log (M) -7.67631) was 23.3% and the viability at 72 h, 7.02 nM ([2]; HEK293T cells, Log (M) -8.15343) was 104%. For the same compound, the viability at 72 h, 2.34 nM ([2]; HEK293T cells, Log (M) -8.63055) was 100%, the viability at 72 h, 0.78 nM ([2]; HEK293T cells, Log (M) -9.10767) was 100% and the “viability of VP-MCC (in words)” value [3] was “potent compound for inhibiting the viability of VP-MCC”. The Percent viability (MCC26 cells (VN-MCC); MCC-26, Log (M) -4.33646) was 12.7%, the Percent viability (MCC26 cells (VN-MCC); MCC-26, Log (M) -4.81358) was 14.1% and the Percent viability (MCC26 cells (VN-MCC); MCC-26, Log (M) -5.2907) was 15.5%. It also gave a Percent viability (MCC26 cells (VN-MCC); MCC-26, Log (M) -5.76782) of 13.0%, a Percent viability (MCC26 cells (VN-MCC); MCC-26, Log (M) -6.24494) of 32.6% and a Percent viability (MCC26 cells (VN-MCC); MCC-26, Log (M) -6.72207) of 74.3%. For the same compound, the Percent viability (MCC26 cells (VN-MCC); MCC-26, Log (M) -7.19919) was 94.8%, the Percent viability (MCC26 cells (VN-MCC); MCC-26, Log (M) -7.67631) was 100.8% and the Percent viability (MCC26 cells (VN-MCC); MCC-26, Log (M) -8.15343) was 100.6%. It also gave a Percent viability (MCC26 cells (VN-MCC); MCC-26, Log (M) -8.63055) of 101.9%, a Percent viability (MCC26 cells (VN-MCC); MCC-26, Log (M) -9.10767) of 102.7% and a Percent viability (UISO cells (VN-MCC); Log (M) -4.33646) of 1.7%. For the same compound, the Percent viability (UISO cells (VN-MCC); Log (M) -4.81358) was -3.1%, the Percent viability (UISO cells (VN-MCC); Log (M) -5.76782) was 0.3% and the Percent viability (UISO cells (VN-MCC); Log (M) -6.24494) was -7.3%. It also gave a Percent viability (UISO cells (VN-MCC); Log (M) -6.72207) of -3.8%, a Percent viability (UISO cells (VN-MCC); Log (M) -7.19919) of 3.4% and a Percent viability (UISO cells (VN-MCC); Log (M) -7.67631) of 44.8%. The Percent viability (UISO cells (VN-MCC); Log (M) -8.15343) was 99.6%, the Percent viability (UISO cells (VN-MCC); Log (M) -8.63055) was 102.4% and the Percent viability (UISO cells (VN-MCC); Log (M) -9.10767) was 104.0%. It also gave a Percent viability (WAGA cells (VP-MCC); Log (M) -4.33646) of 2.2%, a Percent viability (WAGA cells (VP-MCC); Log (M) -4.81358) of 2.7% and a Percent viability (WAGA cells (VP-MCC); Log (M) -5.2907) of 3.2%. It also gave a Percent viability (WAGA cells (VP-MCC); Log (M) -5.76782) of 3.6%, a Percent viability (WAGA cells (VP-MCC); Log (M) -6.24494) of 3.4% and a Percent viability (WAGA cells (VP-MCC); Log (M) -6.72207) of 4.1%. It also gave a Percent viability (WAGA cells (VP-MCC); Log (M) -7.19919) of 5.7%, a Percent viability (WAGA cells (VP-MCC); Log (M) -7.67631) of 15.6% and a Percent viability (WAGA cells (VP-MCC); Log (M) -8.15343) of 103.1%. It also gave a Percent viability (WAGA cells (VP-MCC); Log (M) -8.63055) of 106.2%, a Percent viability (WAGA cells (VP-MCC); Log (M) -9.10767) of 107.0% and a viability at 72 h, 15.4 µM ([4]; HACAT cells (control cell line), Log (M) -4.81358) of 21.2%. It also gave a viability at 72 h, 5.12 µM ([4]; HACAT cells (control cell line), Log (M) -5.2907) of 18.9%, a viability at 72 h, 1.71 µM ([4]; HACAT cells (control cell line), Log (M) -5.76782) of 48.7% and a viability at 72 h, 0.569 µM ([4]; HACAT cells (control cell line), Log (M) -6.24494) of 44.2%. The viability at 72 h, 190 nM ([4]; HACAT cells (control cell line), Log (M) -6.72207) was 35.1%, the viability at 72 h, 63.2 nM ([4]; HACAT cells (control cell line), Log (M) -7.19919) was 66.6% and the viability at 72 h, 46.1 µM ([4]; HACAT cells, Log (M) -4.33646) was 21.2%. The viability at 72 h, 21.1 nM ([4]; HACAT cells, Log (M) -7.67631) was 100%, the viability at 72 h, 7.02 nM ([4]; HACAT cells, Log (M) -8.15343) was 98.2% and the viability at 72 h, 2.34 nM ([4]; HACAT cells, Log (M) -8.63055) was 88.9%. The viability at 72 h, 0.78 nM ([4]; HACAT cells, Log (M) -9.10767) was 104%, the viability at 72 h, 15.4 µM ([5]; NIH-3T3 cells (control cell line), 3T3, Log (M) -4.81358) was 62.5% and the viability at 72 h, 5.12 µM ([5]; NIH-3T3 cells (control cell line), 3T3, Log (M) -5.2907) was 69.8%. For the same compound, the viability at 72 h, 1.71 µM ([5]; NIH-3T3 cells (control cell line), 3T3, Log (M) -5.76782) was 96.1%, the viability at 72 h, 0.569 µM ([5]; NIH-3T3 cells (control cell line), 3T3, Log (M) -6.24494) was 104% and the viability at 72 h, 190 nM ([5]; NIH-3T3 cells (control cell line), 3T3, Log (M) -6.72207) was 100%. It also gave a viability at 72 h, 63.2 nM ([5]; NIH-3T3 cells (control cell line), 3T3, Log (M) -7.19919) of 100%, a viability at 72 h, 21.1 nM ([5]; NIH-3T3 cells (control cell line), 3T3, Log (M) -7.67631) of 104% and a viability at 72 h, 46.1 µM ([5]; NIH-3T3 cells, 3T3, Log (M) -4.33646) of 20.8%. It also gave a viability at 72 h, 7.02 nM ([5]; NIH-3T3 cells, 3T3, Log (M) -8.15343) of 103%, a viability at 72 h, 2.34 nM ([5]; NIH-3T3 cells, 3T3, Log (M) -8.63055) of 100% and a viability at 72 h, 0.78 nM ([5]; NIH-3T3 cells, 3T3, Log (M) -9.10767) of 100%. For the same compound, the Percent viability (MCC13 cells (VN-MCC); MCC-13, Log (M) -4.33646) was 8.9%, the Percent viability (MCC13 cells (VN-MCC); MCC-13, Log (M) -4.81358) was 6.8% and the Percent viability (MCC13 cells (VN-MCC); MCC-13, Log (M) -5.2907) was 19.3%. The Percent viability (MCC13 cells (VN-MCC); MCC-13, Log (M) -5.76782) was 19.0%, the Percent viability (MCC13 cells (VN-MCC); MCC-13, Log (M) -6.24494) was 57.5% and the Percent viability (MCC13 cells (VN-MCC); MCC-13, Log (M) -6.72207) was 89.4%. The Percent viability (MCC13 cells (VN-MCC); MCC-13, Log (M) -7.19919) was 92.8%, the Percent viability (MCC13 cells (VN-MCC); MCC-13, Log (M) -7.67631) was 105.1% and the Percent viability (MCC13 cells (VN-MCC); MCC-13, Log (M) -8.15343) was 92.1%. The Percent viability (MCC13 cells (VN-MCC); MCC-13, Log (M) -8.63055) was 110.1% and the Percent viability (MCC13 cells (VN-MCC); MCC-13, Log (M) -9.10767) was 104.4%.
